From ChEMBL document CHEMBL2150982, “Synthesis and SAR of 1-hydroxy-1H-benzo[d]imidazol-2(3H)-ones as Inhibitors of D-Amino Acid Oxidase” (ACS Med Chem Lett, 2012)

Columns and labels:
D-amino-acid oxidase [1] = target: D-amino-acid oxidase (Homo sapiens, UniProt P14920); experiment: Inhibition of human recombinant DAAO expressed in HEK293 cells using D-serine as substrate after 20 mins by horseradish peroxidase-coupled assay
D-amino-acid oxidase [2] = target: D-amino-acid oxidase (Sus scrofa, UniProt P00371); experiment: Inhibition of pig DAAO using D-serine as substrate after 20 mins by horseradish peroxidase-coupled assay
Plasma = experiment: (§1) Metabolic stability in mouse plasma assessed as compound remaining at 5 uM after 1 hr by LC/MS/MS analysis; assay type: ADME, cell-free; conditions: 1 h, 5 µM
Liver [3] = experiment: (§2) Metabolic stability in mouse liver microsomes assessed as compound remaining at 5 uM after 1 hr by LC/MS/MS analysis in presence of NADPH; assay type: ADME, Microsome; conditions: microsomes, 1 h, 5 µM
Mus musculus [4] = experiment: Pharmaco-enhancing activity in CD1 mouse assessed as increase in D-serine level in plasma at 30 mg/kg, po relative to control; assay type: ADME, organism-based; design: dose 30 mg/kg, route oral; conditions: in vivo
Liver [5] = experiment: Metabolic stability in mouse liver microsomes assessed as compound remaining at 5 uM after 1 hr by LC/MS/MS analysis in presence of UDPGA; assay type: ADME, Microsome
[6] = Metabolic stability in mouse liver microsomes assessed as compound remaining at 5 uM after 1 hr by LC/MS/MS analysis; assay type: ADME, Microsome; conditions: read-out: Stability
[7] = as §1; assay type: ADME, cell-free; conditions: read-out: Stability
[8] = as §2; assay type: ADME, Microsome; conditions: liver microsomes, read-out: Stability
Mus musculus [9] = experiment: Pharmaco-enhancing activity in CD1 mouse assessed as increase in D-serine level in plasma at 30 mg/kg, po measured at 30 mins relative to control; assay type: ADME, organism-based; design: dose 30 mg/kg, route oral; conditions: in vivo, 0.5 h
Mus musculus [10] = experiment: Pharmaco-enhancing activity in CD1 mouse assessed as increase in D-serine level in plasma at 30 mg/kg, po measured up to 2 hrs relative to control; assay type: ADME, organism-based; design: dose 30 mg/kg, route oral; conditions: in vivo

Chain of D-amino-acid oxidase (Sus scrofa, UniProt P00371) (P00371 whole entry): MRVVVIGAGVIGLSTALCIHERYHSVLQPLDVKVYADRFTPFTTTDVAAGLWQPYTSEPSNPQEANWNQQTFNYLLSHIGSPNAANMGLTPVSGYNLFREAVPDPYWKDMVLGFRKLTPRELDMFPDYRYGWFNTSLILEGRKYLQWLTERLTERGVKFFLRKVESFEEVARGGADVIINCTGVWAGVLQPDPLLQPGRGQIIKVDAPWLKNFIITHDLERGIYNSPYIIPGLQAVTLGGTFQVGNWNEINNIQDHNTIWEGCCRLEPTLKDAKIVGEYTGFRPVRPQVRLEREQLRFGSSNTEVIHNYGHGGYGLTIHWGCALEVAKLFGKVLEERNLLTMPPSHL
Chain of D-amino-acid oxidase (Homo sapiens, UniProt P14920) (P14920 whole entry): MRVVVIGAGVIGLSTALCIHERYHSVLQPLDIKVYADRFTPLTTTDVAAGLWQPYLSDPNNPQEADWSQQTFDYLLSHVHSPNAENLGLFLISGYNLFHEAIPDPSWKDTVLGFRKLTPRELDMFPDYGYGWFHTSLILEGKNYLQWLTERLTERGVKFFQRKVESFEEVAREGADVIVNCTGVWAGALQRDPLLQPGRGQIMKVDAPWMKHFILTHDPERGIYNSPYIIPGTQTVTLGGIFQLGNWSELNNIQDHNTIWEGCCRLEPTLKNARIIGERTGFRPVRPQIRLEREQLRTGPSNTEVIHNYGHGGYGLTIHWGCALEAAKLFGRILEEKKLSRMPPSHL

Structure (SMILES) | IC50 (D-amino-acid oxidase [1]) | IC50 (D-amino-acid oxidase [2]) | further results
O=c1[nH]c2cccnc2n1O | 30 µM |  | 
Oc1nc2ccccc2[nH]1 | > 100 µM |  | 
Nn1c(=O)[nH]c2ccccc21 | > 100 µM |  | 
COn1c(=O)[nH]c2ccccc21 | > 100 µM |  | 
Cn1c(=O)n(O)c2ccccc21 | > 100 µM |  | 
O=C1Nc2ccccc2C1O (stereo unspecified) | > 100 µM |  | 
O=c1[nH]c2ncccc2n1O | 1 µM |  | 
O=c1[nH]c2ccncc2n1O | 70 µM |  | 
O=c1[nH]c2ccccc2n1O | 0.6 µM | 1 µM | 
O=c1[nH]c2c(F)cccc2n1O | 0.1 µM | 0.5 µM | 
Cc1cccc2c1[nH]c(=O)n2O | 0.2 µM | 0.4 µM | 
CCc1cccc2c1[nH]c(=O)n2O | 80 µM | 20 µM | 
COc1cccc2c1[nH]c(=O)n2O | 0.1 µM | 0.4 µM | Stability (Plasma): 90%; Stability (Liver [3]): 60%; Activity (Mus musculus [4]): Not Active; Stability (Liver [5]): Unstable; remaining at 1 h, 5 µM [6]: 100%
O=c1[nH]c2c(Cc3ccccc3)cccc2n1O | 10 µM | 50 µM | 
CCOc1cccc2c1[nH]c(=O)n2O | 50 µM | 50 µM | 
CC(C)c1cccc2c1[nH]c(=O)n2O | 20 µM | 10 µM | 
CCCc1cccc2c1[nH]c(=O)n2O | 20 µM | 30 µM | 
CCC(C)c1cccc2c1[nH]c(=O)n2O (stereo unspecified) | > 100 µM | 40 µM | 
Cc1ccc2c([nH]c(=O)n2O)c1C | 20 µM | 1 µM | 

Structure (SMILES) | IC50 (D-amino-acid oxidase [1]) | IC50 (D-amino-acid oxidase [2]) | further results
Cc1c(F)ccc2c1[nH]c(=O)n2O | 0.07 µM | 0.7 µM | 
O=c1[nH]c2c3c(ccc2n1O)CCO3 | 0.8 µM | 0.2 µM | 
Cc1cc(C)c2[nH]c(=O)n(O)c2c1 | 20 µM | 4 µM | 
O=c1[nH]c2c(F)cc(F)cc2n1O | 0.08 µM | 0.4 µM | remaining at 1 h, 5 µM [7]: 100%; remaining at 1 h, 5 µM [8]: 100%; Activity (Mus musculus [9]): Active; Stability (Liver [5]): 0.6%; remaining at 1 h, 5 µM [6]: 100%; Activity (Mus musculus [10]): Active
O=c1[nH]c2cc(F)ccc2n1O | 0.9 µM | 1 µM | 
Cc1ccc2c(c1)[nH]c(=O)n2O | 4 µM | 4 µM | 
O=c1[nH]c2cc(F)c(F)cc2n1O | 70 µM | 30 µM | 
Cc1cc2[nH]c(=O)n(O)c2cc1F | 2 µM | 1 µM | 
O=c1[nH]c2cc3c(cc2n1O)CCC3 | 30 µM | 10 µM | 
O=c1[nH]c2ccc(F)cc2n1O | 0.4 µM | 0.6 µM | 
O=c1[nH]c2ccc(Cl)cc2n1O | 9 µM | 2 µM | 
Cc1ccc2[nH]c(=O)n(O)c2c1 | 30 µM | 7 µM | 
O=c1[nH]c2ccc(F)c(F)c2n1O | 8 µM | 20 µM | 
O=c1[nH]c2ccc3c(c2n1O)CCC3 | > 100 µM | > 100 µM | 
Cc1c(F)ccc2[nH]c(=O)n(O)c12 | > 100 µM | > 100 µM | 
O=c1[nH]c2cccc(F)c2n1O | 3 µM | 20 µM | 
Cc1cccc2[nH]c(=O)n(O)c12 | 40 µM | > 100 µM | 
O=C1Cc2ccccc2N1O | > 100 µM |  | 
